Measured values from patent US5117037A, “Cis-bicyclo[4,3.0]non-2-end derivatives” (Sagami Chemical Research Center Toa Eiyo Ltd., priority 1989, dated 1992).

Tests used:
[1] = test system: platelet aggregation (ADP-induced); assay: Platelet anti-aggregatory activities, ADP-induced aggregation of washed platelet suspension; assay type: cell-based, Japanese white male rabbits; details: for IC50: Oryctolagus cuniculus, 0.05 h, rabbit platelet suspension, 3 min preincubation, read-out: Platelet anti-aggregatory activities ED50, ADP (concentration inhibiting 50% of the platelet aggregation); for activity ratio, ADP (PGI2 = 1): ratio of ED50 relative to PGI2
Procedure: (§1) Japanese white male rabbits having a weight of from 2.0 to 2.5 kg were used.
(§2) Under anesthesia with pentobarbital sodium, blood was collected from the carotid artery and mixed with citric acid dextrose solution (1/7 volume) as an anticoagulant. Then, the mixture was subjected to centrifugal separation at 140 ×g for 15 minutes, whereupon the supernatant (platelet rich plasma: PRP) was collected. PRP was subjected to centrifugal separation at 1,300 ×g for 7 minutes, and platelet pellets thereby obtained were washed with a HEPES buffer solution (pH 6.5) for washing platelets and then subjected to centrifugal separation at 1,300 ×g for 7 minutes. The platelet pellets were washed twice under the same conditions and then suspended in a suspending solution (prepared by adding 0.1% […] for washing platelets) to make a platelet suspension containing from 5 to 8×10^8 platelets/ml. An aggregation meter was used for the measurement of the platelet aggregatory ability. To 380 μl of the platelet suspension, 10 μl of a test compound or a solvent as control was added. Three minutes later, 10 μl of a platelet aggregatory substance (as the final concentration: […], or […]) was added to induce platelet aggregation. The blood platelet anti-aggregatory activities by the test compound was represented by ED50 (i.e. the concentration of the test compound inhibiting 50% of the platelet aggregation).

[2] = test system: platelet aggregation (collagen-induced); assay: Platelet anti-aggregatory activities, collagen-induced aggregation of washed platelet suspension; assay type: cell-based, Japanese white male rabbits; details: for IC50: Oryctolagus cuniculus, 0.05 h, rabbit platelet suspension, 3 min preincubation, read-out: Platelet anti-aggregatory activities ED50, collagen (concentration inhibiting 50% of the platelet aggregation)
Procedure: as §1, §2

[3] = test system: gastric lesion induced by ethanol; assay: Inhibitory effect on formation of gastric lesion induced by ethanol; assay type: in vivo, Male wistar rats; details: rat, p.o, 1.5 hours later; for ED50: po, 1 ml of 99.5% ethanol orally 30 minutes after test compound, read-out: Inhibitory effect on formation of gastric lesion induced by ethanol ED50 (dose at which the ulcer was inhibited by 50%); for activity ratio, gastric lesion (PGE2 = 1): ratio of ED50 relative to PGE2
Procedure: Male wistar rats having a weight of from 170 to 270 g were put into individual cages and starved for 24 hours. During this starvation period, the rats were allowed to drink water freely. A test compound or PGE2 as a comparative compound was orally administered at a dose of 3 μg/kg, 10 μg/kg or 30 μg/kg, and 30 minutes later, 1 ml of 99.5% ethanol was orally administered to each rat. One hour or 4.5 hours after the ethanol administration, each rat was sacrificed by cervical vertebral dislocation, and the stomach was taken out. Each stomach was inflated with an amount of about 8 ml of 1% formaline solution and put into 1% formaline solution for 30 minutes to fix the gastric wall. After the fixing, the stomach was severed along the greater curvature, and the mucous membrane surface of the stomach was gently washed with flowing water. Then, the total length of lesions appearing on the gastric glandular portion was determined and used as the ulcer index.
The inhibitory effect of the test compound was represent by ED50 (i.e. the dose of the test compound at which the ulcer was inhibited by 50% relative to the ulcer index of the non-treated group). To the non-treated group, the solvent was administered.

Row | Compound | IC50 [1] [nM] | activity ratio, ADP (PGI2 = 1) [1] | IC50 [2] [nM] | activity ratio, collagen (PGI2 = 1) ([2]; ratio of ED50 relative to PGI2) | ED50 [3] [µg/kg] | activity ratio, gastric lesion (PGE2 = 1) [3]
1 | CCC#CCC(C)(C)[C@H](O)C#C[C@@H]1[C@H]2CCC(/C=C\CCC(=O)O)=C[C@H]2C[C@H]1O [c] | 1.3 | 2.2 | 0.58 | 5.9 | 0.97 | 9.3
2 | CCCCC[C@H](O)/C=C/[C@@H]1[C@H]2C/C(=C/CCCC(=O)O)O[C@H]2C[C@H]1O [PGI2, reference compound] | 2.9 | – | 3.4 | – | – | –
3 | CCC#CCC(C)(C)[C@H](O)C#C[C@@H]1[C@H]2CCC(CCOCC(=O)O)=C[C@H]2C[C@H]1O [g, 3-(3-oxa-4-carboxybutyl)-7-exo-(4,4-dimethyl-3α-hydroxy-1,6-nondiynyl)-8-endo-hydroxy-cisbicyclo[4.3.0]non-2-ene] | 2.7 | 1.1 | 8.6 | – | – | –
4 | CCC#CC[C@@H](C)[C@H](O)C#C[C@@H]1[C@H]2CCC(CCOCC(=O)O)=C[C@H]2C[C@H]1O [f] | – | – | – | – | 2.1 | 4.3
